From patent US20250281606A1 (AKSEERA PHARMA CORP., priority 2020, published 2025)
“And” between values parts separate entries of the source, which are not always exact repeats. Equal values may be shown once. Read-outs that look alike come from different tables or passages of the source.

How the values were obtained:
[1] = test system: IgG and IgM antibody titres (serum); type: in vivo, Balb/c mice
[2] = test system: IgG and IgM antibody titres (serum); assay: IgG and IgM antibody titres in mice vaccinated with Covishield, with or without oral CBD; settings: for IgG, serum (CLIA, EIA) / IgM, serum (CLIA, EIA): individual mice (F/M); for augmentation of overall IgG response to vaccine by CBD / augmentation of overall IgM response to vaccine by CBD: CBD throughout or until vaccination, same magnitude, vs vaccine alone; for time after vaccine by which IgG and IgM responses were significantly elevated compared to mice not given CBD: CBD throughout the study or just until vaccine
[3] = 0 Day, group GII (CS): Covishild + CBD 102.5 mg/kg/d gavage day -7 to 28
[4] = 0 Day, group GIII (CS): Covishild + CBD 102.5 mg/kg/d gavage day -7 to 0, then discontinued
[5] = 7th Day, group GII (CS): Covishild + CBD 102.5 mg/kg/d gavage day -7 to 28
[6] = 7th Day, group GIII (CS): Covishild + CBD 102.5 mg/kg/d gavage day -7 to 0, then discontinued
[7] = 14 Day, group GII (CS): Covishild + CBD 102.5 mg/kg/d gavage day -7 to 28
[8] = 14 Day, group GIII (CS): Covishild + CBD 102.5 mg/kg/d gavage day -7 to 0, then discontinued

SMILES: C=C(C)[C@@H]1CCC(C)=C[C@H]1c1c(O)cc(CCCCC)cc1O [CBD Formulation, Cannabidiol]
- IgG, serum (CLIA, EIA) ([1]; 0 Day): 7.4 IU/mL and 6.8 IU/mL and 7.2 IU/mL and 7.1 IU/mL and 9.2 IU/mL and 7.5 IU/mL and 8.21 IU/mL
- IgG, serum (CLIA, EIA) ([1]; 14 Day): 7.2 IU/mL and 6.4 IU/mL and 7.1 IU/mL and 7.4 IU/mL and 6 IU/mL and 9.1 IU/mL and 7 IU/mL and 7.3 IU/mL
- IgM, serum (CLIA, EIA) ([1]; 14 Day): 9.3 AU/mL and 9.8 AU/mL and 10.2 AU/mL and 10.3 AU/mL and 9 AU/mL and 10.4 AU/mL and 9.2 AU/mL
- IgG, serum (CLIA, EIA) ([1]; 21 Day): 7.3 IU/mL and 7.1 IU/mL and 7.5 IU/mL and 7.2 IU/mL and 9.1 IU/mL and 7 IU/mL and 7.4 IU/mL
- IgG, serum (CLIA, EIA) ([1]; mouse, in vivo): 7.2 IU/mL and 7.1 IU/mL and 7.3 IU/mL and 6.9 IU/mL and 9.2 IU/mL and 7.5 IU/mL and 8.21 IU/mL
- IgM, serum (CLIA, EIA) ([1]; mouse, in vivo): 10.2 AU/mL and 9.8 AU/mL and 10 AU/mL and 10.1 AU/mL and 10.3 AU/mL
- augmentation by CBD of the response to Covaxin compared with Covishield ([1]; mouse, in vivo): tended to be less
- day at which a rise in IgM was seen ([1]; mouse, in vivo): 7 days
- day at which a significant rise in IgG and IgM was apparent ([1]; mouse, in vivo): 7 days
- day by which a rise in IgG was seen ([1]; mouse, in vivo): ≤ 14 days
- overall IgM response to Covaxin versus Covaxin alone ([1]; mouse, in vivo): augmented
- IgG, serum (CLIA, EIA) [2, 3]: 7.4 IU/mL and 7.8 IU/mL and 7.1 IU/mL (2×) and 6.8 IU/mL and 6.4 IU/mL
- IgM, serum (CLIA, EIA) [2, 3]: 9.2 AU/mL (2×) and 8.2 AU/mL and 10.1 AU/mL and 9.4 AU/mL and 8.8 AU/mL
- IgG, serum (CLIA, EIA) [2, 4]: 7.5 IU/mL and 6.8 IU/mL (2×) and 6.5 IU/mL and 7.21 IU/mL and 7.2 IU/mL
- IgM, serum (CLIA, EIA) [2, 4]: 9.4 AU/mL and 9.3 AU/mL (3×) and 9.2 AU/mL and 9.1 AU/mL
- IgG, serum (CLIA, EIA) [2, 5]: 7.4 IU/mL and 7.5 IU/mL and 8.2 IU/mL and 7.3 IU/mL (2×) and 7.8 IU/mL
- IgM, serum (CLIA, EIA) [2, 5]: 10.2 AU/mL and 8.2 AU/mL and 10.11 AU/mL and 10.5 AU/mL and 10.4 AU/mL
- IgG, serum (CLIA, EIA) [2, 6]: 7.4 IU/mL and 6.9 IU/mL and 7.3 IU/mL (2×) and 7.2 IU/mL and 7.1 IU/mL
- IgM, serum (CLIA, EIA) [2, 6]: 9.2 AU/mL and 9.6 AU/mL and 10.1 AU/mL and 10.2 AU/mL and 10.3 AU/mL
- IgG, serum (CLIA, EIA) [2, 7]: 7.5 IU/mL and 7.8 IU/mL (3×) and 7.6 IU/mL and 8.2 IU/mL
- IgM, serum (CLIA, EIA) [2, 7]: 10.5 AU/mL and 10.15 AU/mL and 10.52 AU/mL
- IgG, serum (CLIA, EIA) [2, 8]: 7.5 IU/mL (2×) and 7.6 IU/mL and 7.3 IU/mL and 7.8 IU/mL and 7.9 IU/mL
- IgM, serum (CLIA, EIA) [2, 8]: 10.1 AU/mL and 10.5 AU/mL and 10.3 AU/mL (2×)
- IgG, serum (CLIA, EIA) ([2]; 21 Day, group GII (CS): Covishild + CBD 102.5 mg/kg/d gavage day -7 to 28): 7.8 IU/mL (2×) and 7.1 IU/mL and 7.5 IU/mL and 7.9 IU/mL and 8.1 IU/mL
- IgG, serum (CLIA, EIA) ([2]; 21 Day, group GIII (CS): Covishild + CBD 102.5 mg/kg/d gavage day -7 to 0, then discontinued): 7.6 IU/mL (2×) and 8.1 IU/mL (3×) and 7.8 IU/mL
- augmentation of overall IgG response to vaccine by CBD ([2]; FIG. 2C, average overall response over 28 days): 15%
- augmentation of overall IgM response to vaccine by CBD ([2]; FIG. 2D, average overall response over 28 days): 25%
- augmentation of overall IgG response to vaccine by CBD ([2]; FIG. 2I, AUC over 28 days, female mice): 13%
- augmentation of overall IgM response to vaccine by CBD ([2]; FIG. 2J, AUC over 28 days, female mice): 21%
- time after vaccine by which IgG and IgM responses were significantly elevated compared to mice not given CBD ([2]; FIGS. 2E and 2F): ≤ 7 days
- IgG response at day 7 versus vehicle (no CBD) group ([2]; FIGS. 2K and 2L, female mice, CBD given throughout the trial): significantly better IgG response
- time after vaccine by which IgG and IgM responses were significantly elevated compared to mice not given CBD ([2]; FIGS. 2K and 2L, female mice): ≤ 14 days
- course of antibody titres in mice given vaccine plus CBD ([2]; compared with vaccine without CBD, whose titres did not rise, up to day 28): rose and remained elevated until day 28
